The record followed here is patent publication US9963448B2, “Bicyclic inhibitors of PAD4” (Padlock Therapeutics, Inc., priority 2015, dated 2018).

Each structure is given as a SMILES string. pIC50: −log10 of the molar value. Read-outs that look alike come from different tables or passages of the source.

One assay concerns the target hPAD4 (Homo sapiens, UniProt Q9UM07). The assay is described as follows: hPAD4 RFMS (RapidFire mass spectrometry) PAD4 inhibition assay.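 As to hPAD4 RFMS pIC50: grade E means pIC50 at most 4 and F means pIC50 4.0 to 5.0.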 In kind it is biochemical. The note with it: hPAD4 enzyme, RFMS readout; for IC50: pIC50=−log(IC50), read-out: hPAD4 RFMS pIC50 (converted); for pIC50: read-out: hPAD4 RFMS IC50. The protocol:
(§1) Compounds of the present invention were assayed as inhibitors of PAD4 using the assay protocol described below.
(§2) Compound stock solutions were stored at RT. […] Final assay conditions were as follows:
(§3) Total incubation time: 65 mins at 37° C.
(§4) Stop solution: 40 μl 5% TCA in ACN
(§5) The compound numbers correspond to the compound numbers in Table 1. […] The term pIC50=−log(IC50). […] “NA” stands for “not assayed.”

For another assay, the target named is mPAD4 (Mus musculus, UniProt Q9Z183). Put plainly: mPAD4 RFMS PAD4 inhibition assay.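 As to mPAD4 RFMS pIC50: grade E means pIC50 at most 4 and F means pIC50 4.0 to 5.0.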 In kind it is biochemical. The note with it: mPAD4, RFMS readout; for IC50: pIC50=−log(IC50), read-out: mPAD4 RFMS pIC50 (converted); for pIC50: read-out: mPAD4 RFMS IC50. The protocol: as §1, §2, §3, §4, §5
Sequence of mPAD4 (Q9Z183 whole entry): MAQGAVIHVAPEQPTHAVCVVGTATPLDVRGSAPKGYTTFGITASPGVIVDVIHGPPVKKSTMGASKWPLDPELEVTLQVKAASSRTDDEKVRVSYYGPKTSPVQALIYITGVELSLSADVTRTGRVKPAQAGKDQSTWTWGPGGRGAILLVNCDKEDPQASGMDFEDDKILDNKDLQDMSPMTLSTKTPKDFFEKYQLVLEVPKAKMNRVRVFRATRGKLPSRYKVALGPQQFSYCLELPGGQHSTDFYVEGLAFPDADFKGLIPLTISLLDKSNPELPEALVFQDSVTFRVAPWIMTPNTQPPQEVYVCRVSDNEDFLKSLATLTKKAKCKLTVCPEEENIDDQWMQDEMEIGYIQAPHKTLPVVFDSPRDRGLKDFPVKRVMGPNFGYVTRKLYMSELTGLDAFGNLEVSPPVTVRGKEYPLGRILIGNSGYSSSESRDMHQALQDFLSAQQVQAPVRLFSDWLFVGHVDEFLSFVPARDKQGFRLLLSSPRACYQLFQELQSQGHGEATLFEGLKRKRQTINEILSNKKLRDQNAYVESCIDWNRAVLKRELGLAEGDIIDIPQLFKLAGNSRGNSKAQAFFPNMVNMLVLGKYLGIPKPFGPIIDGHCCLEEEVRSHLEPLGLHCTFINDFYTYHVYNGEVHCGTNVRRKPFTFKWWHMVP

Sequence of hPAD4 (Q9UM07 whole entry): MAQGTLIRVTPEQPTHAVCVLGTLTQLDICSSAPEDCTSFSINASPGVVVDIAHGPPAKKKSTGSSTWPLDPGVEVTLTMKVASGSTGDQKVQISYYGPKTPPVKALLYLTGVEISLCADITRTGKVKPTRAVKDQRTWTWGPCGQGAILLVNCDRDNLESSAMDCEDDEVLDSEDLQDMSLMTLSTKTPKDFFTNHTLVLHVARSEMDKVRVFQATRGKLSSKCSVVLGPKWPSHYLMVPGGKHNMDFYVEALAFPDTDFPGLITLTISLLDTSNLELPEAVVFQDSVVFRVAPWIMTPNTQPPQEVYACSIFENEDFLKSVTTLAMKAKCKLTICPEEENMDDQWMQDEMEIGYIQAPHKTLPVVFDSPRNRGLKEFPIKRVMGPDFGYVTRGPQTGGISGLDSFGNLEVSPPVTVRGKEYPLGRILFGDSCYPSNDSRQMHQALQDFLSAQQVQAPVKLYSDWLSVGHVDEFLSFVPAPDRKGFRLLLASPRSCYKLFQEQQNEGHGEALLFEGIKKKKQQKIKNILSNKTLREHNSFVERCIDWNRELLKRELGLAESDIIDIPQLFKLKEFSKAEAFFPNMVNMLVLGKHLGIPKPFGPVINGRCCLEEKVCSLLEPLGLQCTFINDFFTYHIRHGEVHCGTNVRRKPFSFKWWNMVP

Turning to `CCn1c(-c2nc3cc(C(=O)N4CCC[C@@H](N)C4)cc(OC)c3n2CCOC)cc2cccnc21` [Compound I-176], at hPAD4, the IC50 was 1000 to 10000 nM and the pIC50 (as a rule, the IC50 on a negative log10 scale, so that one unit is a factor of ten) was 5.30 to 6.00. For the same compound, at mPAD4, the IC50 was 1000 to 10000 nM and the pIC50 was 5.30 to 6.00.

Turning to `COCCn1c(-c2cc3cccnc3n2CC2CC2)nc2cc(C(=O)N3CCC[C@@H](N)C3)cc(OC)c21` [Compound I-177], the IC50 is 1000 to 10000 nM at hPAD4 and below 1000 nM at mPAD4. The pIC50 on hPAD4 is 5.30 to 6.00; on mPAD4, above 6.00.

For `COCCn1c(-c2cc3cccnc3n2CC2CC2)nc2cc(C(=O)N3C[C@H]4CC[C@@H]3[C@@H]4N)cc(OC)c21` [Compound I-178], the IC50 at hPAD4 and on mPAD4 was below 1000 nM in each case. For the same compound, the pIC50 on hPAD4 and on mPAD4 was above 6.00 each time.

Regarding `CCn1c(-c2nc3cc(C(=O)N4C[C@H]5CC[C@@H]4[C@@H]5N)cc(OC)c3n2CC2CC(F)(F)C2)cc2cccnc21` [Compound I-179], the IC50 was below 1000 nM at hPAD4 and 1000 to 10000 nM at mPAD4. The pIC50 at hPAD4 was above 6.00; at mPAD4 it was 5.30 to 6.00.

Consider `CCn1c(-c2nc3cc(C(=O)N4CCC[C@@H](N)C4)cc(OC)c3n2CC2CC(F)(F)C2)cc2cccnc21` [Compound I-180], for which, on hPAD4, the IC50 is 1000 to 10000 nM and the pIC50 was 5.30 to 6.00. For the same compound, on mPAD4, the IC50 is below 1000 nM and the pIC50 is above 6.00.

Take `COc1cc(C(=O)N2C[C@H]3CC[C@@H]2[C@@H]3N)cc2nc(-c3cc4cccnc4n3CC3CC3)n(C[C@H]3C[C@@](C)(OC)C3)c12` [Compound I-181]: the IC50 on hPAD4 and on mPAD4 was below 1000 nM each time. Moreover, the pIC50 on hPAD4 and at mPAD4 was above 6.00 in each case.

`COc1cc(C(=O)N2CCC[C@@H](N)C2)cc2nc(-c3cc4cccnc4n3CC3CC3)n(C[C@H]3C[C@@](C)(OC)C3)c12` [Compound I-182]: on hPAD4, the IC50 is below 1000 nM and the pIC50 was above 6.00. Besides, at mPAD4, the IC50 was below 1000 nM and the pIC50 was above 6.00.

Consider `CCn1c(-c2nc3cc(C(=O)N4C[C@H]5CC[C@@H]4[C@@H]5N)cc(OC)c3n2C)cc2ccc(C(F)(F)F)nc21` [Compound I-183], for which, on hPAD4, the IC50 was below 1000 nM and the pIC50 was above 6.00. At mPAD4, the IC50 is below 1000 nM and the pIC50 is above 6.00.

On to `CCn1c(-c2nc3cc(C(=O)N4CCC[C@@H](N)C4)cc(OC)c3n2C)cc2ccc(C(F)(F)F)nc21` [Compound I-184], for which, at hPAD4, the IC50 is below 1000 nM and the pIC50 was above 6.00. For the same compound, at mPAD4, the IC50 was below 1000 nM and the pIC50 is above 6.00.

Take `CCn1c(-c2nc3cc(C(=O)N4CCC[C@@H](N)C4)ccc3n2CCOC)cc2cccnc21` [Compound I-185]: at hPAD4, the IC50 was 1000 to 10000 nM and the pIC50 was 5.00 to 5.30. Further, on mPAD4, the IC50 is 10000 to 100000 nM and the pIC50 is below 5.00.

On to `CCn1c(-c2nc3cc(C(=O)N4C[C@H]5CC[C@@H]4[C@@H]5N)ccc3n2CCOC)cc2cccnc21` [Compound I-186], for which the IC50 at hPAD4 is 1000 to 10000 nM; on mPAD4, 10000 to 100000 nM. The pIC50 at hPAD4 is 5.30 to 6.00; on mPAD4, below 5.00.

Take `COc1cc(C(=O)N2C[C@H]3CC4OC(=O)N[C@H]3[C@@H]42)cc2nc(-c3cc4cccnc4n3CC3CC3)n(C)c12` [Compound I-187, (1S,2R,8R)-10-{2-[1-(Cyclopropylmethyl)-1H-pyrrolo[2,3-b]pyridin-2-yl]-7-methoxy-1-methyl-1H-1,3-benzodiazole-5-carbonyl}-5-oxa-3,10-diazatricyclo[4.4.0.0^2,8]decan-4-one]: the IC50 at hPAD4 and on mPAD4 was 10000 to 100000 nM throughout. The pIC50 at hPAD4 and at mPAD4 was below 5.00 throughout.

Consider `COc1ccc2cc(-c3nc4cc(C(=O)N5C[C@H]6CC[C@@H]5[C@@H]6N)cc(OC)c4n3C)n(CC3CC3)c2n1` [Compound I-188], for which the IC50 at hPAD4 and on mPAD4 was below 1000 nM each time. In addition, the pIC50 on hPAD4 and at mPAD4 was above 6.00 in each case.

With `CCn1c(-c2nc3cc(C(=O)N4C[C@H]5CC[C@@H]4[C@@H]5N)cc(OC)c3n2C)cc2ccc(C(F)F)nc21` [Compound I-189, (1R,4R,7R)-2-{2-[6-(Difluoromethyl)-1-ethyl-1H-pyrrolo[2,3-b]pyridin-2-yl]-7-methoxy-1-methyl-1H-1,3-benzodiazole-5-carbonyl}-2-azabicyclo[2.2.1]heptan-7-amine], the IC50 on hPAD4 and at mPAD4 was below 1000 nM each time. For the same compound, the pIC50 at hPAD4 and on mPAD4 was above 6.00 each time.

Take `COCCn1c(-c2nc3cc(C(=O)N4C[C@@H](N)CC[C@H]4C)cc(OC)c3n2C)cc2cccnc21` [Compound I-190]: the IC50 at hPAD4 and on mPAD4 was 1000 to 10000 nM in each case. For the same compound, the pIC50 at hPAD4 and at mPAD4 was 5.30 to 6.00 in each case.

Regarding `Cn1c(-c2cc3cccnc3n2CC2CC2)nc2cc(C(=O)N3C[C@H]4CC[C@@H]3[C@@H]4N)cc(F)c21` [Compound I-191], the results for the IC50 on hPAD4 and on mPAD4 were below 1000 nM and 1000 to 10000 nM, respectively. Besides, the results for the pIC50 at hPAD4 and on mPAD4 were above 6.00 and 5.30 to 6.00, respectively.

For the compound `COCCn1c(-c2nc3cc(C(=O)N4C[C@H]5CC[C@@H]4[C@@H]5N)ccc3n2C)cc2ccc(OC)nc21` [Compound I-192], the IC50 is below 1000 nM on hPAD4 and 1000 to 10000 nM on mPAD4. The pIC50 is above 6.00 on hPAD4 and 5.00 to 5.30 on mPAD4.

Regarding `COCCn1c(-c2nc3cc(C(=O)N4CCC[C@@H](N)C4)ccc3n2C)cc2ccc(OC)nc21` [Compound I-193], on hPAD4, the IC50 is 1000 to 10000 nM and the pIC50 was 5.30 to 6.00. Further, on mPAD4, the IC50 was 1000 to 10000 nM and the pIC50 is 5.30 to 6.00.

For the compound `Cn1c(-c2cc3cccnc3n2CC2CC2)nc2cc(C(=O)N3C[C@H]4CC[C@@H]3[C@@H]4N)c(F)cc21` [Compound I-194], on hPAD4, the IC50 is 1000 to 10000 nM and the pIC50 is 5.30 to 6.00. Moreover, on mPAD4, the IC50 was 1000 to 10000 nM and the pIC50 was 5.00 to 5.30.

Regarding `COCCn1c(-c2nc3cc(C(=O)N4C[C@H](N)CC[C@@H]4C)cc(OC)c3n2C)cc2cccnc21` [Compound I-195], on hPAD4, the IC50 is 1000 to 10000 nM and the pIC50 was 5.00 to 5.30. Besides, on mPAD4, the IC50 is 1000 to 10000 nM and the pIC50 was 5.30 to 6.00.

As for `COc1cc(C(=O)N2C[C@H]3CC[C@@H]2[C@@H]3N)cc2nc(-c3cc4ccc(C(F)(F)F)nc4n3CC3CC3)n(C)c12` [Compound I-196], at hPAD4, the IC50 is below 1000 nM and the pIC50 is above 6.00. Besides, at mPAD4, the IC50 was below 1000 nM and the negative-log IC50 (pIC50) is above 6.00.

As to `COc1cc(C(=O)N2CCC[C@@H](N)C2)cc2nc(-c3cc4ccc(C(F)(F)F)nc4n3CC3CC3)n(C)c12` [Compound I-197], at hPAD4, the IC50 was below 1000 nM and the pIC50 is above 6.00. Further, on mPAD4, the IC50 was below 1000 nM and the pIC50 was above 6.00.

Take `COc1cc(C(=O)N2C[C@H]3CC[C@@H]2[C@@H]3N)cc2nc(-c3cc4ccc(C)nc4n3CC3CC3)n(C)c12` [Compound I-198]: at hPAD4, the IC50 was below 1000 nM and the pIC50 was above 6.00. Further, on mPAD4, the IC50 was below 1000 nM and the pIC50 is above 6.00.

`COc1cc(C(=O)N2CCC[C@@H](N)C2)cc2nc(-c3cc4ccc(C)nc4n3CC3CC3)n(C)c12` [Compound I-199]: at hPAD4, the IC50 is below 1000 nM and the pIC50 was above 6.00. Further, on mPAD4, the IC50 was below 1000 nM and the pIC50 was above 6.00.
